According to patent US20190185518A9, “WARHEAD-CONTAINING PEPTIDOMIMETIC MACROCYCLES AS MODULATORS OF BFL-1” (AILERON Therapeutics, Inc., priority 2017, published 2019):
Positions of bridges follow the written chain, without caps; N, C: chain ends. Non-standard residues stand in square brackets, D forms with d. Residues, ends and D or L forms follow the SMILES beside them. R8 = C=CCCCCCC[C@@](C)(N)C(=O)O; Cit = NC(=O)NCCC[C@H](N)C(=O)O; S5 = C=CCCC[C@](C)(N)C(=O)O

Columns and labels:
[1] = biological target: Mcl-1 (Homo sapiens, UniProt Q07820); experiment: Ki determination for Mcl-1 (BCL-2 family binding spectrum); conditions: read-out: Ki MCL-1
Chain of Mcl-1 (Q07820 whole entry, species assumed): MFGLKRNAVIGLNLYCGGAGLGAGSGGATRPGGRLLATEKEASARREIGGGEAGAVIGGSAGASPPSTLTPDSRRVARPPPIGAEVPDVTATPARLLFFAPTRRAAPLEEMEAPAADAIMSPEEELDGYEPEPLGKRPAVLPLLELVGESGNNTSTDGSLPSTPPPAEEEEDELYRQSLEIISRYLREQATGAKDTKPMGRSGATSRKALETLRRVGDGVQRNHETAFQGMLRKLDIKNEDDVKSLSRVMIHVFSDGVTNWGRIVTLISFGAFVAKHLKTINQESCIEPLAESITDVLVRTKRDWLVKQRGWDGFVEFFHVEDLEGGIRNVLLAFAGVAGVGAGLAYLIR
Outline: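 Binding to Mcl-1 was measured as displacement of a fluorescein-labelled macrocyclic peptidomimetic, read by fluorescence polarization. Constants were fitted by nonlinear regression.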

[2] = biological target: Bcl-2 (Homo sapiens, UniProt P10415); experiment: Ki determination for Bcl-2 (BCL-2 family binding spectrum); conditions: read-out: Ki BCL-2
Chain of Bcl-2 (P10415 whole entry, species assumed): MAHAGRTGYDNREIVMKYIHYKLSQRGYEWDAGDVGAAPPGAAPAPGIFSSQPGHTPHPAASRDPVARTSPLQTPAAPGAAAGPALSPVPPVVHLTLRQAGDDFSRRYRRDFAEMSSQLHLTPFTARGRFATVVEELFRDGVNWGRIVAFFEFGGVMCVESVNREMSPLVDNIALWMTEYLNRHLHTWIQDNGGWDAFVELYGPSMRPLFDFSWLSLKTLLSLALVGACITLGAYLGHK
Outline: (§1)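 Competitive fluorescence polarization: compounds (1 nM–1 mM) with 25 nM fluoresceinated peptidomimetic macrocycle and 50 nM protein in 140 mM NaCl, 50 mM Tris-HCl pH 7.4, 30 min at room temperature. Constants from nonlinear regression.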

[3] = biological target: Bcl-xL (Homo sapiens, UniProt Q07817); experiment: Ki determination for Bcl-xL (BCL-2 family binding spectrum); conditions: read-out: Ki BCL-XL
Chain of Bcl-xL (Q07817 whole entry, species assumed): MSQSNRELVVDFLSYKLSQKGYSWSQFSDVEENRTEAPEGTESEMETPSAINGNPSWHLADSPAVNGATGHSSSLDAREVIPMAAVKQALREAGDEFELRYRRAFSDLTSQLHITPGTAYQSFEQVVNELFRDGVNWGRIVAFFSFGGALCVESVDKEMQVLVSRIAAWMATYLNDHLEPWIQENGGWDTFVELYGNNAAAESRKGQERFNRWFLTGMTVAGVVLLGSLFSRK
Outline: as §1

In the case of CC[C@H](C)[C@H](NC(C)=O)C(=O)N[C@@H](Cc1c[nH]c2ccccc12)C(=O)N[C@H](C(=O)N[C@@H](C)C(=O)N[C@@H](CCC(N)=O)C(=O)N[C@@H](C)C(=O)N[C@@H](CC(C)C)C(=O)N[C@@H](CCCNC(=N)N)C(=O)N[C@]1(C)CCCCCCC=CCCC[C@@](C)(C(=O)N[C@@H](Cc2ccc(O)cc2)C(=O)N[C@@H](Cc2ccc(O)cc2)C(=O)N[C@@H](C)C(N)=O)NC(=O)[C@H](CC(N)=O)NC(=O)[C@H](Cc2ccccc2)NC(=O)[C@H](CCC(N)=O)NC(=O)[C@H](CC(=O)O)NC(=O)CNC(=O)[C@H]([C@@H](C)CC)NC1=O)[C@@H](C)CC [compound 1650] (Ac-IWIAQALR[R8]IGDQFN[S5]YYA-NH2; staple 9-16), the Ki [1] is reported as 5.2 nM, the Ki [2] is reported as 67 nM and the Ki [3] is reported as 12 nM.

With CC[C@H](C)[C@H](NC(C)=O)C(=O)N[C@@H](Cc1c[nH]c2ccccc12)C(=O)N[C@H](C(=O)N[C@@H](C)C(=O)N[C@@H](C)C(=O)N[C@@H](C)C(=O)N[C@@H](CC(C)C)C(=O)N[C@@H](CCCNC(=N)N)C(=O)N[C@]1(C)CCCCCCC=CCCC[C@@](C)(C(=O)N[C@@H](Cc2ccc(O)cc2)C(=O)N[C@@H](Cc2ccc(O)cc2)C(=O)N[C@@H](C)C(N)=O)NC(=O)[C@H](CC(N)=O)NC(=O)[C@H](Cc2ccccc2)NC(=O)[C@H](CCC(=O)O)NC(=O)[C@H](CC(=O)O)NC(=O)CNC(=O)[C@H]([C@@H](C)CC)NC1=O)[C@@H](C)CC [compound 1651] (Ac-IWIAAALR[R8]IGDEFN[S5]YYA-NH2; staple 9-16) the Ki [1] was 1 nM, the Ki [2] was 6 nM and the Ki [3] was 1 nM.

With CC[C@H](C)[C@H](NC(C)=O)C(=O)N[C@@H](Cc1c[nH]c2ccccc12)C(=O)N[C@H](C(=O)N[C@@H](C)C(=O)N[C@@H](C)C(=O)N[C@@H](C)C(=O)N[C@@H](CC(C)C)C(=O)N[C@@H](CCCNC(=N)N)C(=O)N[C@]1(C)CCCCCCC=CCCC[C@@](C)(C(=O)N[C@@H](Cc2ccc(O)cc2)C(=O)N[C@@H](Cc2ccc(O)cc2)C(=O)N[C@@H](C)C(N)=O)NC(=O)[C@H](CC(N)=O)NC(=O)[C@H](Cc2ccccc2)NC(=O)[C@H](CCC(N)=O)NC(=O)[C@H](CC(=O)O)NC(=O)CNC(=O)[C@H]([C@@H](C)CC)NC1=O)[C@@H](C)CC [compound 1652] (Ac-IWIAAALR[R8]IGDQFN[S5]YYA-NH2; staple 9-16) the Ki [1] was 6 nM, the Ki [2] was 22 nM and the Ki [3] was 4 nM.

CC[C@H](C)[C@H](NC(C)=O)C(=O)N[C@@H](Cc1c[nH]c2ccccc12)C(=O)N[C@H](C(=O)N[C@@H](C)C(=O)N[C@@H](CCC(N)=O)C(=O)N[C@@H](C)C(=O)N[C@@H](CC(C)C)C(=O)N[C@@H](CCCNC(N)=O)C(=O)N[C@]1(C)CCCCCCC=CCCC[C@@](C)(C(=O)N[C@@H](Cc2ccc(O)cc2)C(=O)N[C@@H](Cc2ccc(O)cc2)C(=O)N[C@@H](C)C(N)=O)NC(=O)[C@H](CC(N)=O)NC(=O)[C@H](Cc2ccccc2)NC(=O)[C@H](CCC(N)=O)NC(=O)[C@H](CC(=O)O)NC(=O)CNC(=O)[C@H]([C@@H](C)CC)NC1=O)[C@@H](C)CC [compound 1656] (Ac-IWIAQAL[Cit][R8]IGDQFN[S5]YYA-NH2; staple 9-16) gave a Ki [1] of 1.7 nM, a Ki [2] of 88.2 nM and a Ki [3] of 28.8 nM.

CC[C@H](C)[C@H](NC(C)=O)C(=O)N[C@@H](Cc1c[nH]c2ccccc12)C(=O)N[C@H](C(=O)N[C@@H](C)C(=O)N[C@@H](CCC(N)=O)C(=O)N[C@@H](C)C(=O)N[C@@H](CC(C)C)C(=O)N[C@@H](Cc1c[nH]cn1)C(=O)N[C@]1(C)CCCCCCC=CCCC[C@@](C)(C(=O)N[C@@H](Cc2ccc(O)cc2)C(=O)N[C@@H](Cc2ccc(O)cc2)C(=O)N[C@@H](C)C(N)=O)NC(=O)[C@H](CC(N)=O)NC(=O)[C@H](Cc2ccccc2)NC(=O)[C@H](C)NC(=O)[C@H](CC(=O)O)NC(=O)CNC(=O)[C@H]([C@@H](C)CC)NC1=O)[C@@H](C)CC [compound 1657] (Ac-IWIAQALH[R8]IGDAFN[S5]YYA-NH2; staple 9-16) was tested, and the Ki [1] was > 1000 nM, the Ki [2] was > 1000 nM and the Ki [3] was > 1000 nM.

With CC[C@H](C)[C@H](NC(C)=O)C(=O)N[C@@H](Cc1c[nH]c2ccccc12)C(=O)N[C@H](C(=O)N[C@@H](C)C(=O)N[C@@H](CCC(N)=O)C(=O)N[C@@H](C)C(=O)N[C@@H](CC(C)C)C(=O)N[C@@H](Cc1c[nH]cn1)C(=O)N[C@]1(C)CCCCCCC=CCCC[C@@](C)(C(=O)N[C@@H](Cc2ccc(O)cc2)C(=O)N[C@@H](Cc2ccc(O)cc2)C(=O)N[C@@H](C)C(N)=O)NC(=O)[C@H](CC(N)=O)NC(=O)[C@H](Cc2ccccc2)NC(=O)[C@H](CCC(N)=O)NC(=O)[C@H](CC(=O)O)NC(=O)CNC(=O)[C@H]([C@@H](C)CC)NC1=O)[C@@H](C)CC [compound 1658] (Ac-IWIAQALH[R8]IGDQFN[S5]YYA-NH2; staple 9-16) the Ki [1] was > 1000 nM, the Ki [2] was > 1000 nM and the Ki [3] was > 1000 nM.

CC[C@H](C)[C@H](NC(C)=O)C(=O)N[C@@H](Cc1c[nH]c2ccccc12)C(=O)N[C@H](C(=O)N[C@@H](C)C(=O)N[C@@H](CCC(N)=O)C(=O)N[C@@H](C)C(=O)N[C@@H](CC(C)C)C(=O)N[C@@H](CCCNC(=N)N)C(=O)N[C@]1(C)CCCCCCC=CCCC[C@@](C)(C(=O)N[C@@H](Cc2ccc(O)cc2)C(=O)N[C@@H](Cc2ccc(O)cc2)C(=O)N[C@@H](C)C(N)=O)NC(=O)[C@H](CC(N)=O)NC(=O)[C@H](C)NC(=O)[C@H](C)NC(=O)[C@H](CC(=O)O)NC(=O)CNC(=O)[C@H]([C@@H](C)CC)NC1=O)[C@@H](C)CC [compound 1661] (Ac-IWIAQALR[R8]IGDAAN[S5]YYA-NH2; staple 9-16) gave a Ki [1] of 7.5 nM, a Ki [2] of 140 nM and a Ki [3] of 402 nM.

With CC[C@H](C)[C@H](NC(C)=O)C(=O)N[C@@H](Cc1c[nH]c2ccccc12)C(=O)N[C@H](C(=O)N[C@@H](C)C(=O)N[C@@H](CCC(N)=O)C(=O)N[C@@H](C)C(=O)N[C@@H](CC(C)C)C(=O)N[C@@H](CCCNC(=N)N)C(=O)N[C@]1(C)CCCCCCC=CCCC[C@@](C)(C(=O)N[C@@H](Cc2ccc(O)cc2)C(=O)N[C@@H](Cc2ccc(O)cc2)C(=O)N[C@@H](C)C(N)=O)NC(=O)[C@H](CC(N)=O)NC(=O)[C@H](Cc2ccccc2)NC(=O)[C@H](CCC(N)=O)NC(=O)[C@H](CC(=O)O)NC(=O)[C@H](C)NC(=O)[C@H]([C@@H](C)CC)NC1=O)[C@@H](C)CC [compound 1666] (Ac-IWIAQALR[R8]IADQFN[S5]YYA-NH2; staple 9-16) the Ki [1] was 116 nM, the Ki [2] was 25.6 nM and the Ki [3] was 7.7 nM.

Work on CC[C@H](C)[C@H](NC(C)=O)C(=O)N[C@@H](Cc1c[nH]c2ccccc12)C(=O)N[C@H](C(=O)N[C@@H](C)C(=O)N[C@@H](CCC(N)=O)C(=O)N[C@@H](C)C(=O)N[C@@H](CC(C)C)C(=O)N[C@@H](CCCNC(=N)N)C(=O)N[C@]1(C)CCCCCCC=CCCC[C@@](C)(C(=O)N[C@@H](Cc2ccc(O)cc2)C(=O)N[C@@H](Cc2ccc(O)cc2)C(=O)N[C@@H](C)C(N)=O)NC(=O)[C@H](CC(N)=O)NC(=O)[C@H](Cc2ccccc2)NC(=O)[C@H](CCC(N)=O)NC(=O)[C@H](CC(=O)O)NC(=O)CNC(=O)[C@H](C)NC1=O)[C@@H](C)CC [compound 1668] (Ac-IWIAQALR[R8]AGDQFN[S5]YYA-NH2; staple 9-16) yielded a Ki [1] of 122 nM, a Ki [2] of 4.8 nM and a Ki [3] of 1.9 nM.

For CC[C@H](C)[C@H](NC(C)=O)C(=O)N[C@@H](Cc1c[nH]c2ccccc12)C(=O)N[C@H](C(=O)N[C@@H](C)C(=O)N[C@@H](CCC(N)=O)C(=O)N[C@@H](C)C(=O)N[C@@H](CC(C)C)C(=O)N[C@@H](C)C(=O)N[C@]1(C)CCCCCCC=CCCC[C@@](C)(C(=O)N[C@@H](Cc2ccc(O)cc2)C(=O)N[C@@H](Cc2ccc(O)cc2)C(=O)N[C@@H](C)C(N)=O)NC(=O)[C@H](CC(N)=O)NC(=O)[C@H](Cc2ccccc2)NC(=O)[C@H](C)NC(=O)[C@H](CC(=O)O)NC(=O)CNC(=O)[C@H]([C@@H](C)CC)NC1=O)[C@@H](C)CC [compound 1673] (Ac-IWIAQALA[R8]IGDAFN[S5]YYA-NH2; staple 9-16), the Ki [1] was 73.8 nM, the Ki [2] was > 1000 nM and the Ki [3] was 386 nM.

With CC[C@H](C)[C@H](NC(C)=O)C(=O)N[C@@H](Cc1c[nH]c2ccccc12)C(=O)N[C@H](C(=O)N[C@@H](C)C(=O)N[C@@H](CCC(N)=O)C(=O)N[C@@H](C)C(=O)N[C@@H](CC(C)C)C(=O)N[C@@H](CCCNC(=N)N)C(=O)N[C@]1(C)CCCCCCC=CCCC[C@@](C)(C(=O)N[C@@H](Cc2ccc(O)cc2)C(=O)N[C@@H](Cc2ccc(O)cc2)C(=O)N[C@@H](C)C(N)=O)NC(=O)[C@H](CC(N)=O)NC(=O)[C@H](Cc2ccccc2)NC(=O)[C@H](C)NC(=O)[C@H](CC(N)=O)NC(=O)CNC(=O)[C@H]([C@@H](C)CC)NC1=O)[C@@H](C)CC [compound 1674] (Ac-IWIAQALR[R8]IGNAFN[S5]YYA-NH2; staple 9-16) the Ki [1] was 195 nM, the Ki [2] was 405 nM and the Ki [3] was 416 nM.

With CC[C@H](C)[C@H](NC(C)=O)C(=O)N[C@@H](Cc1c[nH]c2ccccc12)C(=O)N[C@H](C(=O)N[C@@H](C)C(=O)N[C@@H](CCC(N)=O)C(=O)N[C@@H](C)C(=O)N[C@@H](CC(C)C)C(=O)N[C@@H](CCCNC(N)=O)C(=O)N[C@]1(C)CCCCCCC=CCCC[C@@](C)(C(=O)N[C@@H](Cc2ccc(O)cc2)C(=O)N[C@@H](Cc2ccc(O)cc2)C(=O)N[C@@H](C)C(N)=O)NC(=O)[C@H](CC(N)=O)NC(=O)[C@H](C(C)C)NC(=O)[C@H](C)NC(=O)[C@H](CC(=O)O)NC(=O)CNC(=O)[C@H]([C@@H](C)CC)NC1=O)[C@@H](C)CC [compound 1774] (Ac-IWIAQAL[Cit][R8]IGDAVN[S5]YYA-NH2; staple 9-16) the Ki [2] was > 1000 nM and the Ki [3] was > 1000 nM.
